Results reported in US4361703A, “Para-amino(or nitro)phenyl N-acetylaminothioalkanoates” (priority 1977, dated 1982).
Where two headings read alike, the source gives them in different places.

What was measured:
[1] = tested on: albino rats (Charles River CD-1 COBS); assay: Acute oral toxicity in rats; assay type: in vivo
Procedure: (§1) (F)--Investigation of Acute Oral Toxicity in Rats
(§2) The investigation was carried out upon groups of 10 male and 10 female albino rats (Charles River CD-1 COBS) of 80-100 g body weight. […] Before the experiment they were fasted overnight, with water ad libitum. NAPA and Compound A were then administered orally by oesophageal intubation as suspensions (continuously shaken with an electromagnetic agitator) in 1% gum arabic at a volume of 2 ml/100 g body weight, and at dose levels of 1, 2, 4 and 8 g/kg. A control group received orally, under the same experimental conditions, merely 2 ml/100 g of the suspension vehicle. The rats were then kept under observation during seven days, while their behaviour patterns were observed and the mortality recorded

[2] = Acute oral toxicity in rats; assay type: in vivo; conditions: rat, in vivo; for mortality at 144 h / mortality at 48 h / mortality at 72 h / mortality at 96 h / mortality at 120 h / mortality at 168 h / mortality at 24 h: po; for mortality at 144 h: 6 Days
Procedure: as §1, §2

[3] = tested on: yeast-inflamed hind-paw pain-threshold; assay: Analgesic activity, Randall-Selitto test in rats; assay type: in vivo, female Charles River rats
Procedure: (C)--Investigation of Analgesic Activity in Rats
A control group received only the gum tragacanth vehicle.
In order to evaluate the effect of the treatment upon pain-thresholds, pressure was applied both to the injected hind-paw and to the other non-injected hind-paw. The pain-threshold was noted as the pressure at which the rat flinched, measured using an Ugo Basile "Analgesimeter" for both hind-paws of each rat at intervals of 1 hour, 3 hours, 5 hours and 22 hours after the administration, and expressed as the percentage of the pain-threshold pressure for the injected (and thus inflamed) hind-paw as against the non-injected (and thus healthy) hind-paw.

[4] = in vivo; conditions: mouse, in vivo, po
Procedure: (E)--Investigation of Acute Oral Toxicity in Mice
Charles River (CD-1 COBS) albino mice, 20-22 g in weight, were kept for some days in an air-conditioned animal house and fed with a standard diet (sterile VAR granules). They were fasted overnight before experiment, with water ad libitum. 15 Male mice and 15 female mice were used for each experiment.
N-Acetyl-para-aminophenol (NAPA) and N-acetyl-para-aminophenyl N'-acetyl-D,L-methionate (Compound A) were then administered to the mice, orally, as a suspension (shaken continuously with an electromagnetic agitator) in 5% gum arabic at a volume of 0.02 ml/g, either individually or in variously proportioned mixtures and at different dose levels, as shown in Table VII below.
A control group received only the 5% gum arabic vehicle.

[5] = mouse, in vivo, po
[6] = 1000 mg/kg, 1 g/kg oral, 10 F, read-out: Percentage Mortality
[7] = 1000 mg/kg, 1 g/kg oral, 10 M, read-out: Percentage Mortality
[8] = 1000 mg/kg, 1 g/kg oral, M & F, read-out: Percentage Mortality
[9] = 2000 mg/kg, 2 g/kg oral, 10 F, read-out: Percentage Mortality
[10] = 2000 mg/kg, 2 g/kg oral, 10 M, read-out: Percentage Mortality
[11] = 2000 mg/kg, 2 g/kg oral, M & F, read-out: Percentage Mortality
[12] = 4000 mg/kg, 4 g/kg oral, 10 F, read-out: Percentage Mortality
[13] = 4000 mg/kg, 4 g/kg oral, 10 M, read-out: Percentage Mortality
[14] = 4000 mg/kg, 4 g/kg oral, M & F, read-out: Percentage Mortality
[15] = 4000 mg/kg, Percentage Mortality
[16] = 8000 mg/kg, 8 g/kg oral, 10 F, read-out: Percentage Mortality
[17] = 8000 mg/kg, 8 g/kg oral, 10 M, read-out: Percentage Mortality
[18] = 8000 mg/kg, 8 g/kg oral, M & F, read-out: Percentage Mortality
[19] = 8000 mg/kg, Percentage Mortality

With CC(=O)Nc1ccc(O)cc1 [NAPA, N-acetyl-para-aminophenol] the “time of first deaths” value ([1]; 8 g/kg oral, rats) was “eight hours after the administration at 8 g/kg dose level”, the “mortality (in words)” value ([1]; oral, rats, 1-8 g/kg) was “Heavy mortality” and the “Percentage Mortality” value ([1]; rat, in vivo, po, 8000 mg/kg, 24 h) was 95 Percentage. The mortality at 144 h [2, 6] was 0%, the mortality at 48 h [2, 6] was 0% and the mortality at 72 h ([2]; 1000 mg/kg, 1 g/kg oral, 10 M, 3 Days, read-out: Percentage Mortality) was 10%. The mortality at 96 h ([2]; 1000 mg/kg, 1 g/kg oral, 10 M, 4 Days, read-out: Percentage Mortality) was 10%, the mortality at 120 h ([2]; 1000 mg/kg, 1 g/kg oral, 10 M, 5 Days, read-out: Percentage Mortality) was 10% and the mortality at 144 h [2, 7] was 10%. For the same compound, the mortality at 168 h ([2]; 1000 mg/kg, 1 g/kg oral, 10 M, 7 Days, read-out: Percentage Mortality) was 10%, the mortality at 24 h ([2]; 1000 mg/kg, 1 g/kg oral, 10 M, 24 Hours, read-out: Percentage Mortality) was 10% and the mortality at 48 h [2, 7] was 10%. The mortality at 120 h ([2]; 1000 mg/kg, 1 g/kg oral, M & F, 5 Days, read-out: Percentage Mortality) was 5%, the mortality at 144 h [2, 8] was 5% and the mortality at 48 h [2, 8] was 5%. It also gave a mortality at 120 h ([2]; 1000 mg/kg, Percentage Mortality) of 0%, a mortality at 144 h [2, 9] of 0% and a mortality at 48 h [2, 9] of 0%. The mortality at 72 h ([2]; 2000 mg/kg, 2 g/kg oral, 10 M, 3 Days, read-out: Percentage Mortality) was 10%, the mortality at 96 h ([2]; 2000 mg/kg, 2 g/kg oral, 10 M, 4 Days, read-out: Percentage Mortality) was 10% and the mortality at 120 h ([2]; 2000 mg/kg, 2 g/kg oral, 10 M, 5 Days, read-out: Percentage Mortality) was 10%. For the same compound, the mortality at 144 h [2, 10] was 10%, the mortality at 168 h ([2]; 2000 mg/kg, 2 g/kg oral, 10 M, 7 Days, read-out: Percentage Mortality) was 10% and the mortality at 24 h ([2]; 2000 mg/kg, 2 g/kg oral, 10 M, 24 Hours, read-out: Percentage Mortality) was 10%. The mortality at 48 h [2, 10] was 10%, the mortality at 120 h ([2]; 2000 mg/kg, 2 g/kg oral, M & F, 5 Days, read-out: Percentage Mortality) was 5% and the mortality at 144 h [2, 11] was 5%. For the same compound, the mortality at 48 h [2, 11] was 5%, the mortality at 120 h ([2]; 2000 mg/kg, Percentage Mortality) was 0% and the mortality at 144 h [2, 12] was 70%. The mortality at 168 h ([2]; 4000 mg/kg, 4 g/kg oral, 10 F, 7 Days, read-out: Percentage Mortality) was 70%, the mortality at 48 h [2, 12] was 70% and the mortality at 72 h ([2]; 4000 mg/kg, 4 g/kg oral, 10 M, 3 Days, read-out: Percentage Mortality) was 90%. For the same compound, the mortality at 96 h ([2]; 4000 mg/kg, 4 g/kg oral, 10 M, 4 Days, read-out: Percentage Mortality) was 90%, the mortality at 120 h ([2]; 4000 mg/kg, 4 g/kg oral, 10 M, 5 Days, read-out: Percentage Mortality) was 90% and the mortality at 144 h [2, 13] was 90%. The mortality at 168 h ([2]; 4000 mg/kg, 4 g/kg oral, 10 M, 7 Days, read-out: Percentage Mortality) was 90%, the mortality at 24 h ([2]; 4000 mg/kg, 4 g/kg oral, 10 M, 24 Hours, read-out: Percentage Mortality) was 90% and the mortality at 48 h [2, 13] was 90%. It also gave a mortality at 144 h [2, 14] of 80%, a mortality at 48 h [2, 14] of 80% and a mortality at 24 h [2, 15] of 70%. It also gave a mortality at 72 h [2, 15] of 70%, a mortality at 96 h [2, 15] of 70% and a mortality at 120 h [2, 15] of 70%. It also gave a mortality at 168 h [2, 15] of 80%, a mortality at 144 h [2, 16] of 100% and a mortality at 48 h [2, 16] of 100%. It also gave a mortality at 72 h ([2]; 8000 mg/kg, 8 g/kg oral, 10 M, 3 Days, read-out: Percentage Mortality) of 100%, a mortality at 96 h ([2]; 8000 mg/kg, 8 g/kg oral, 10 M, 4 Days, read-out: Percentage Mortality) of 100% and a mortality at 120 h ([2]; 8000 mg/kg, 8 g/kg oral, 10 M, 5 Days, read-out: Percentage Mortality) of 100%. The mortality at 144 h [2, 17] was 100%, the mortality at 168 h ([2]; 8000 mg/kg, 8 g/kg oral, 10 M, 7 Days, read-out: Percentage Mortality) was 100% and the mortality at 24 h ([2]; 8000 mg/kg, 8 g/kg oral, 10 M, 24 Hours, read-out: Percentage Mortality) was 90%. For the same compound, the mortality at 48 h [2, 17] was 100%, the mortality at 144 h [2, 18] was 100% and the mortality at 48 h [2, 18] was 100%. For the same compound, the mortality at 24 h [2, 19] was 100%, the mortality at 72 h [2, 19] was 100% and the mortality at 96 h [2, 19] was 100%. For the same compound, the mortality at 120 h [2, 19] was 100%, the mortality at 168 h [2, 19] was 100% and the LD50 at 24 h ([2]; oral, rats, Miller and Tainter method) was 3100 ± 500 mg/kg. The LD50 at 168 h ([2]; oral, rats, Miller and Tainter method, read-out: LD50 (7 days)) was 2850 ± 400 mg/kg, the “Percentage Pain-Threshold (injected vs non-injected paw)” value ([3]; 1 millimole/kg oral (NAPA 151, A 324 mg/kg), 1 hr. (3.5 hrs. from yeast)) was 45 ± 3.5 Percentage and the “Percentage Pain-Threshold (injected vs non-injected paw)” value ([3]; 1 millimole/kg oral (NAPA 151, A 324 mg/kg), 3 hrs. (5.5 hrs. from yeast)) was 48 ± 4.1 Percentage. The “Percentage Pain-Threshold (injected vs non-injected paw)” value ([3]; 1 millimole/kg oral (NAPA 151, A 324 mg/kg), 5 hrs. (7.5 hrs. from yeast)) was 47 ± 1.7 Percentage, the “Percentage Pain-Threshold (injected vs non-injected paw)” value ([3]; 1 millimole/kg oral (NAPA 151, A 324 mg/kg), 22 hrs. (24.5 hrs. from yeast)) was 43 ± 3.4 Percentage and the “Percentage Pain-Threshold (injected vs non-injected paw)” value ([3]; 2 millimoles/kg oral (NAPA 302, A 648 mg/kg), 1 hr. (3.5 hrs. from yeast)) was 50 ± 4.2 Percentage. For the same compound, the “Percentage Pain-Threshold (injected vs non-injected paw)” value ([3]; 2 millimoles/kg oral (NAPA 302, A 648 mg/kg), 3 hrs. (5.5 hrs. from yeast)) was 54 ± 4.0 Percentage, the “Percentage Pain-Threshold (injected vs non-injected paw)” value ([3]; 2 millimoles/kg oral (NAPA 302, A 648 mg/kg), 5 hrs. (7.5 hrs. from yeast)) was 53 ±3.9 Percentage and the “Percentage Pain-Threshold (injected vs non-injected paw)” value ([3]; 2 millimoles/kg oral (NAPA 302, A 648 mg/kg), 22 hrs. (24.5 hrs. from yeast)) was 54 ± 4.7 Percentage. For the same compound, the “P of pain-threshold (t-test versus control)” value ([3]; 2 millimoles/kg oral, 3 hrs.) was less than 0.05, the LD50 at 24 h [4] was 730 ± 65 mg/kg and the LD50 at 168 h [4] was 690 ± 65 mg/kg. For the same compound, the “serum "total" or "enzymatic" NAPA profile” value [5] was “slowly decreases but remains high up to 4 hours after oral administration”.
